How the values were obtained:
Type in all cases: binding
[1] = target: kinases (KINOMEscan panel) (Homo sapiens, UniProt P53355); conditions: kinase DAPK1; NEW KINOMEscan
[2] = target: kinases (KINOMEscan panel) (Homo sapiens, UniProt P07333); conditions: NEW KINOMEscan
[3] = target: T1, kinases (KINOMEscan panel) (Homo sapiens, UniProt Q9NRP7); conditions: STK36; NEW KINOMEscan
T1 sequence (Q9NRP7 1-1315): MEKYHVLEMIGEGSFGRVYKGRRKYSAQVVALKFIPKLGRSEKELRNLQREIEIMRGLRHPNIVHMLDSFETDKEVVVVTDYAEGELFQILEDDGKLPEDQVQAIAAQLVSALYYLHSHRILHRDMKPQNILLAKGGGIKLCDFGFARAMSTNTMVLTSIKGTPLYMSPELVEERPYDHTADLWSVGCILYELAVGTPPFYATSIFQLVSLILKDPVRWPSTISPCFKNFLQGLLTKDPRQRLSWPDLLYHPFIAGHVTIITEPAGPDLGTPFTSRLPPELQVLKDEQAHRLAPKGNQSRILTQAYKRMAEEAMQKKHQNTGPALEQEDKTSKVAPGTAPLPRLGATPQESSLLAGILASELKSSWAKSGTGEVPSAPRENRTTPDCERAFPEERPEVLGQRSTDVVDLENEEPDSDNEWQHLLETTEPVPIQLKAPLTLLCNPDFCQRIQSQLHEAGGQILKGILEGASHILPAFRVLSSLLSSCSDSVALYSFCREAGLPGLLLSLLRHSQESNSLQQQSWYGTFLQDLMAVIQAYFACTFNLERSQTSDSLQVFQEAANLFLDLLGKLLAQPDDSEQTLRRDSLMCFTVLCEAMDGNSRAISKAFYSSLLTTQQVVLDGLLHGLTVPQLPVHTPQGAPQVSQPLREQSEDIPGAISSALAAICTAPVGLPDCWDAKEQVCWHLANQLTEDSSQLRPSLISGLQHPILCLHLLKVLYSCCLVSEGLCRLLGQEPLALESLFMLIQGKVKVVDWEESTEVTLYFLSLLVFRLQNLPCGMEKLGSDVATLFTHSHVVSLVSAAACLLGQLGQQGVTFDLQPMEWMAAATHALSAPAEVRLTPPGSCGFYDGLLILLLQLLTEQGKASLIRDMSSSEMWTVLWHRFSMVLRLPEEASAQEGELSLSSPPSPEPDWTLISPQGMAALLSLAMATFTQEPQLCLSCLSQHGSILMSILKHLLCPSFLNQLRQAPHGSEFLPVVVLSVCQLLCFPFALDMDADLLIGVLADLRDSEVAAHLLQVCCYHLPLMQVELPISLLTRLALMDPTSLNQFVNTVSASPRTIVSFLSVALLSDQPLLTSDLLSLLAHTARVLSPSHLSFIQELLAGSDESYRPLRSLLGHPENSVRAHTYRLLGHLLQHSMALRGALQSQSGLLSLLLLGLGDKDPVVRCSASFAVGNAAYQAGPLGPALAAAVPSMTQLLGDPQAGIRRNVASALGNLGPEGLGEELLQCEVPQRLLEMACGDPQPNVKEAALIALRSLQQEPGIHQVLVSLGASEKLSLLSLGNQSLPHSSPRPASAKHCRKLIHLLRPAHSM

[4] = target: T2, kinases (KINOMEscan panel) (Homo sapiens, UniProt O14920)
T2 sequence (O14920 1-756): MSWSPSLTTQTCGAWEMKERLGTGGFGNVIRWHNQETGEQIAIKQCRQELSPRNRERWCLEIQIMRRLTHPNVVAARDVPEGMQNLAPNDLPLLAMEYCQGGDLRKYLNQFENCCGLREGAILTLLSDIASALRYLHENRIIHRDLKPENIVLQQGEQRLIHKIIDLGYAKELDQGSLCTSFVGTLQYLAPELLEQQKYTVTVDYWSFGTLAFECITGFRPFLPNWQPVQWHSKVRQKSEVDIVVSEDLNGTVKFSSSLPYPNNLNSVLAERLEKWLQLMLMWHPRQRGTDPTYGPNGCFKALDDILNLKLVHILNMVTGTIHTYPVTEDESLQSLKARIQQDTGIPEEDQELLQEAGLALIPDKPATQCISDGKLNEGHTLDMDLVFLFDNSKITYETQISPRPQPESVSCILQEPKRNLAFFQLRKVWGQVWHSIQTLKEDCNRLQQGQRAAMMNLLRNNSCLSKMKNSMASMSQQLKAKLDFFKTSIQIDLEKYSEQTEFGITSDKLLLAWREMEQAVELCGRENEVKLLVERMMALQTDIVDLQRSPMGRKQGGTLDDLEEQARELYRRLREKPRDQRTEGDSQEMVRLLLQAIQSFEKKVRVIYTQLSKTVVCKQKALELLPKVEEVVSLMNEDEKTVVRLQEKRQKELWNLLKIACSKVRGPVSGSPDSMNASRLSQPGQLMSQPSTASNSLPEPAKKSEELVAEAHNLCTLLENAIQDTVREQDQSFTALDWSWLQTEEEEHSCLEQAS

[5] = target: kinases (KINOMEscan panel) (Homo sapiens, UniProt Q9BX84); conditions: TRPM6; NEW KINOMEscan
Chain of kinases (KINOMEscan panel) (Homo sapiens, UniProt Q9BX84) (Q9BX84 whole entry): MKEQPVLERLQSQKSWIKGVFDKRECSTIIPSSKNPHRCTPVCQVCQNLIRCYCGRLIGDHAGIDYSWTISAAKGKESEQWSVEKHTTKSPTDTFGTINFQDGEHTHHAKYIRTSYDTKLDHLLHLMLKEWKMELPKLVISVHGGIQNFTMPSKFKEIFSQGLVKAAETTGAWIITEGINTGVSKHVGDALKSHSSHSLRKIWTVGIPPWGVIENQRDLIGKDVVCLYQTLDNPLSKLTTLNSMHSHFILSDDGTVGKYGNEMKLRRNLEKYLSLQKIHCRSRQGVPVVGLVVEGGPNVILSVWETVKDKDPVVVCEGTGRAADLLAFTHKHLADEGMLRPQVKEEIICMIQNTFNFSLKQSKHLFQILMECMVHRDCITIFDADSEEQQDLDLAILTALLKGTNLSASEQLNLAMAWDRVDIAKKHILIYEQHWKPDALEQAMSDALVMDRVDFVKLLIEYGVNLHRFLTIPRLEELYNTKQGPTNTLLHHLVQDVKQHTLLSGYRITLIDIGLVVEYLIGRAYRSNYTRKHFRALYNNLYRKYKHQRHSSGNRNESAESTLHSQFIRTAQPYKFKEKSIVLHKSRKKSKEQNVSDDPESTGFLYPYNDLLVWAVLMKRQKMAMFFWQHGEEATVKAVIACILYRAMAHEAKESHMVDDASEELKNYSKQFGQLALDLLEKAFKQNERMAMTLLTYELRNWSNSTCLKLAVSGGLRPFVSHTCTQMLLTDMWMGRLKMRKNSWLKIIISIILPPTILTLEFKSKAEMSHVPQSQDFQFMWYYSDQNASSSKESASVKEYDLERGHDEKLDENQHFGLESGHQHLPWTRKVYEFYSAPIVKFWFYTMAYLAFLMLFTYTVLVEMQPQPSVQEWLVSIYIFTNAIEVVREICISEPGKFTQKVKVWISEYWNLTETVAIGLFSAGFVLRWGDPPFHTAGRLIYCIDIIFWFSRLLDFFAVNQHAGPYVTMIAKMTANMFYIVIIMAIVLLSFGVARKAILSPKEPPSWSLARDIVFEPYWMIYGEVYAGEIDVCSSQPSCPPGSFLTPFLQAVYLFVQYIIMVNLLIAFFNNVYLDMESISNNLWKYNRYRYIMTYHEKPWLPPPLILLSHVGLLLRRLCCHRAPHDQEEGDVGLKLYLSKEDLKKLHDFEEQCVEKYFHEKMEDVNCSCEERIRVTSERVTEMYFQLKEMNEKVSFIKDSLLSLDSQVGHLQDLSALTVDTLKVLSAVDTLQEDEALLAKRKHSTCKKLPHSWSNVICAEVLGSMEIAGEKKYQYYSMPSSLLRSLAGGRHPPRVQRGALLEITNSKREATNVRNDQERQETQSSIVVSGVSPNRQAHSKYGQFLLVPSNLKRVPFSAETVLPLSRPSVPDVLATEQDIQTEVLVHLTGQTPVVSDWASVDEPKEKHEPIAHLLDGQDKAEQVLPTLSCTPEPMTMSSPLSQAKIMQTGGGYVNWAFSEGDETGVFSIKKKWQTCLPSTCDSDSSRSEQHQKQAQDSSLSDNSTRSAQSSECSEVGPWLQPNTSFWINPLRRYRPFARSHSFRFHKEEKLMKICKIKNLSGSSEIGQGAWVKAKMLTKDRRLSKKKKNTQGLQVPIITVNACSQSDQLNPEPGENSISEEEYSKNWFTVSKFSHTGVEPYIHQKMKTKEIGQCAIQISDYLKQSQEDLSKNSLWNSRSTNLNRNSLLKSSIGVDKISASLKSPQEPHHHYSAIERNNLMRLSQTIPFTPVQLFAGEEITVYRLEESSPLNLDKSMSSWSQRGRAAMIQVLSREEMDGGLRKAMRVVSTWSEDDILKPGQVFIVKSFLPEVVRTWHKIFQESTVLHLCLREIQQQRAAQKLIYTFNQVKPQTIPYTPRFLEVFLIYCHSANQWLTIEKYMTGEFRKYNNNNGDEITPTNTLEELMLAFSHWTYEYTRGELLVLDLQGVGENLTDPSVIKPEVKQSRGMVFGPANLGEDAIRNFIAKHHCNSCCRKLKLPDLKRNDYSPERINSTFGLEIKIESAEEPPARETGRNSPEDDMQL

[6] = target: T3, kinases (KINOMEscan panel) (Homo sapiens, UniProt Q6P3R8); conditions: kinase NEK5; NEW KINOMEscan
T3 sequence (Q6P3R8 1-708): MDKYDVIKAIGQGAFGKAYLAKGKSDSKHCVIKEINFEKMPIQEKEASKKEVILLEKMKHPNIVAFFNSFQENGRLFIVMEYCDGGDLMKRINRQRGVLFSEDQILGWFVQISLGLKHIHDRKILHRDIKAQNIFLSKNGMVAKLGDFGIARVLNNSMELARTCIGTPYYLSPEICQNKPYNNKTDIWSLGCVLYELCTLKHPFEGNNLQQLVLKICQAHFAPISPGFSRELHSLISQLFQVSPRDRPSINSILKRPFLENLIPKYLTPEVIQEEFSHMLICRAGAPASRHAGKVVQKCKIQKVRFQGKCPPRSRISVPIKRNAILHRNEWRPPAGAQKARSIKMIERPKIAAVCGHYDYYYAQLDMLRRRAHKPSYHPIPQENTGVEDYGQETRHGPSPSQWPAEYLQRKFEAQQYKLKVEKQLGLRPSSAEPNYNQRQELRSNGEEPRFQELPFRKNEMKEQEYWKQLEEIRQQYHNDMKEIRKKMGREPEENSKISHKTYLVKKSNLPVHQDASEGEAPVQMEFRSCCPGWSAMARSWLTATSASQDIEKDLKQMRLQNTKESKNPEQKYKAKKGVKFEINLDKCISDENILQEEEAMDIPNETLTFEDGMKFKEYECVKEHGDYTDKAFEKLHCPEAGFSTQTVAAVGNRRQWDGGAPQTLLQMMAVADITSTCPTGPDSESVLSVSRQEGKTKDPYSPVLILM

Chain of kinases (KINOMEscan panel) (Homo sapiens, UniProt P07333) (P07333 20-972): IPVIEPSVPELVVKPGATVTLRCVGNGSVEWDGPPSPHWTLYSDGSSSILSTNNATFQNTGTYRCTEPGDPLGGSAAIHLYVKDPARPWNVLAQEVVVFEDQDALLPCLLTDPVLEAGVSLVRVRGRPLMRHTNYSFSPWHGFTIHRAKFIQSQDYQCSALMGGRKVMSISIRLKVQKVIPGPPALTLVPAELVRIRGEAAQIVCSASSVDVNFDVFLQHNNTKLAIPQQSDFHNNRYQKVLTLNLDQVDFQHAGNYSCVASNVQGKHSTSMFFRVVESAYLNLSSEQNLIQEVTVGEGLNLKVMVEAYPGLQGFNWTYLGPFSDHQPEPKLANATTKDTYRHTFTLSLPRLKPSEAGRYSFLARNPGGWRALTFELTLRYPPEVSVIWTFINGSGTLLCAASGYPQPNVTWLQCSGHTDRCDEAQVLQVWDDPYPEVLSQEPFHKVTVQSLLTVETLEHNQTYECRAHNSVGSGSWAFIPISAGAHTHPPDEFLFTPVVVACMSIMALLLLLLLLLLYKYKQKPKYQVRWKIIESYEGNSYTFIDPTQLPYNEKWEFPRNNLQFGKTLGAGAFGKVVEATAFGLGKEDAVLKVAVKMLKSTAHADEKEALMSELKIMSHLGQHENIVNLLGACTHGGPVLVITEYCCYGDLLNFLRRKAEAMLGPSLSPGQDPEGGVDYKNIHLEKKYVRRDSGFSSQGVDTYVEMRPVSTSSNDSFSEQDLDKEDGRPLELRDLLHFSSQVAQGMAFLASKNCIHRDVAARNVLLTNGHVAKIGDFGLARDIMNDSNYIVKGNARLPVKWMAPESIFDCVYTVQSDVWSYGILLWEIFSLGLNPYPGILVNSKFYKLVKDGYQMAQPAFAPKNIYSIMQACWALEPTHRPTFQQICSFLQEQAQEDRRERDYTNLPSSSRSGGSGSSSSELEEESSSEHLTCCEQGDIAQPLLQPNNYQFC
Chain of kinases (KINOMEscan panel) (Homo sapiens, UniProt P53355) (P53355 whole entry): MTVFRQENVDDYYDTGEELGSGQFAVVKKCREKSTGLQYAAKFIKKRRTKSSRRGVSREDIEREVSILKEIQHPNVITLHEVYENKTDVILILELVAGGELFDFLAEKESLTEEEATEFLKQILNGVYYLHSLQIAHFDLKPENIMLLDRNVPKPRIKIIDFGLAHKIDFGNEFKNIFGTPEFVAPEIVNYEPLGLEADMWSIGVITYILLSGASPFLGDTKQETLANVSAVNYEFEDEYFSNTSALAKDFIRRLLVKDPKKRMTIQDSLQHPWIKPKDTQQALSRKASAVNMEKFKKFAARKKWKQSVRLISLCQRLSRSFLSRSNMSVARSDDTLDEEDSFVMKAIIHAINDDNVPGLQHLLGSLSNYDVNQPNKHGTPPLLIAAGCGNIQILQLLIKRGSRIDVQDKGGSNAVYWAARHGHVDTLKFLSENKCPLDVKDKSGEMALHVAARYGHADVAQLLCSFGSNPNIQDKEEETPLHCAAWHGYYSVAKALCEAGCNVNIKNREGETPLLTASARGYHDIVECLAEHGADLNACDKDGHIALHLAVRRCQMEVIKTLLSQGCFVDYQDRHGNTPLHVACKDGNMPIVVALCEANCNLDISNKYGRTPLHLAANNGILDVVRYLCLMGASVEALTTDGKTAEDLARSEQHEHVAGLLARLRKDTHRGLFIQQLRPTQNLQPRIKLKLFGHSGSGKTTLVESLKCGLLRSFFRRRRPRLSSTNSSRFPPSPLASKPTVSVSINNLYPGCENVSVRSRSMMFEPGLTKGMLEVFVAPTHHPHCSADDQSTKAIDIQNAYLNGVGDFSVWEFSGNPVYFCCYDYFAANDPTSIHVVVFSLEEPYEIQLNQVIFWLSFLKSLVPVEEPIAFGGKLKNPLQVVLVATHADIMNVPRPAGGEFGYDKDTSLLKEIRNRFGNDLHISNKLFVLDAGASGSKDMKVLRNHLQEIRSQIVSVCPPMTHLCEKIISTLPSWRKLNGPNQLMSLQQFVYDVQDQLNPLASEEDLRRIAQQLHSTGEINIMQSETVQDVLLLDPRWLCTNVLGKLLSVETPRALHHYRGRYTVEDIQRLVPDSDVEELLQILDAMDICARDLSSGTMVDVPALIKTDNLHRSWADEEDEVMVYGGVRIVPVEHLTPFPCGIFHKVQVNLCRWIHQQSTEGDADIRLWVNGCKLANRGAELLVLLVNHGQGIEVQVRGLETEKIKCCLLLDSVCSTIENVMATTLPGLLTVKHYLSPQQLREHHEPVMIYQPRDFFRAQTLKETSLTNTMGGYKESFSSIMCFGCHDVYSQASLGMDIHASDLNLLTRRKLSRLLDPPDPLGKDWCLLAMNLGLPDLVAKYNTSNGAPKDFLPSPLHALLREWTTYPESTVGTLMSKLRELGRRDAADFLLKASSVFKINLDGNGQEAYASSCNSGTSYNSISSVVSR

Structure (SMILES) | KINOMEscan DAPK1 [1] | KINOMEscan CSF1R [2] | KINOMEscan CSF1R-autoinhibited [2] | KINOMEscan STK36 [3] | KINOMEscan IKBKB/IKK-beta [4] | KINOMEscan TRPM6 [5] | KINOMEscan NEK5 [6]
Cc1cccc(-c2nc(Nc3ccc4nn(C)cc4c3)c3ccccc3n2)n1 [NK167] | 0 | 16 | 0 | 0 | 5 | 0 | 0
Cc1cccc(-c2nc(N(C)c3ccc4ncsc4c3)c3ccccc3n2)n1 [NK-161] | 0 | 18 | 26 | 7 | 25 | 0 | 0
